Assay results: article PMC8151276, “An Integrated Approach toward NanoBRET Tracers for Analysis of GPCR Ligand Engagement” (Molecules, 2021)

Legend:
[1] = biological target: T1, AVPR1A (Homo sapiens, UniProt P37288); experiment: NanoBRET screen HiBiT-AVPR1A in HEK293; assay type: binding
T1 construct: purchased Promega (in-house HiBiT-GPCR construct library, NanoBRET)
Method: (§1) Each tracer candidate was screened across the entire library of HiBiT-GPCR constructs using NanoBRET as the detection modality. As depicted in Figure 4A, the specificity of interactions was evaluated through decrease in BRET due to competitive displacement of a bound tracer by excess parental compound. Each tracer was analyzed for binding to each HiBiT-GPCR fusion in the absence and in the presence of competing parental compound. Briefly, HEK293 cells were transfected with HiBiT-GPCR constructs diluted into promoterless DNA to reduce expression and maximize translocation to the cell surface. Each tracer candidate was then screened at concentrations of 1 μM and 0.1 μM across cells expressing these fusions. Cells were treated for 1.5 h with tracer either alone or in the presence of 20 μM competing parental compound (i.e., control). BRET was measured upon addition of purified LgBiT and subsequent complementation with HiBiT genetically fused to a GPCR. The specificity of interactions was assessed through a decrease in BRET signal due to competitive displacement of the bound tracer. To further gauge the robustness of these interactions, the fold response over the control (i.e., BRETtracer/BRETcontrol) was calculated. We chose a 1.5-fold response, which translates to ≥7-fold signal over noise as the minimal threshold required to score an interaction as positive.
(§2) HiBiT-GPCR DNA constructs were diluted in 10 mM Tris pH 8 to a final concentration of 0.01 μg/μL, arrayed in 96-well plates and stored at −20 °C. For transfection, HEK293 cells were suspended in Opti-MEM (without phenol red) supplemented with 2% fetal bovine serum (Seradigm) and 100 units/mL penicillin–streptomycin (Gibco) at a final concentration of 220,000 cells/mL and dispensed into white 96-well plates at 90 μL/well. Subsequent transfections and screens were carried using an Agilent Bravo Automated Liquid Handling Platform. First, the 96-well HiBiT DNA arrays were diluted 25-fold in Opti-MEM (without serum or phenol red) to a final concentration of 0.0004 μg/μL and 20 μL of the diluted DNAs were transferred into new 96-well plates. Next, promoterless carrier DNA (1 μg/μL) was diluted 25-fold (0.04 μg/μL) and then dispensed into the diluted arrays at 20 μL/well. Following brief mixing, Viafect transfection reagent (Promega) diluted 16-fold into Opti-MEM was dispensed into the plates at 40 μL/well. After mixing by pipetting, plates were incubated for 10 min on the pipetting station deck. The DNA-transfection reagent complexes were then added to plates containing cells. To facilitate the screen, 10 μL of DNA-transfection reagent complexes were added in duplicates to the top 4 and bottom 4 rows, resulting in two identical 48-well arrays per plate. Plates with transfected cells were incubated for 18–20 h at 37 °C/5% CO2. A screen of each tracer across the entire library using two different concentrations requires duplicate plates of transfected cells. Depending on the number of tracers being screened, transfections can be scaled up using the same ratios. The next day, for each tracer, four 20× screening solutions in tracer dilution buffer (Promega) were prepared: two duplicates at final concentration of 20 μM and two duplicates at a final concentration of 2 μM. […] The four resulting solutions were diluted 4-fold in Opti-MEM without serum or phenol red to generate 5× solutions (5 µM and 0.5 µM tracer +/− 100 μM competing compound). To screen the library, a BioTek MultiFlo FX liquid dispenser was used to dispense 22.5 µL of tracer solution to the top 4 rows and 22.5 µL tracer + competing compound solution to the 4 bottom rows. Plates were briefly mixed on an orbital shaker and incubated for 1.5 h at room temperature. […] Plates were briefly mixed on an orbital shaker and incubated for 15 min to allow complementation.

[2] = biological target: T2, NPFFR1 (Homo sapiens, UniProt Q9GZQ6); experiment: NanoBRET screen HiBiT-NPFFR1 in HEK293; assay type: binding
T2 construct: purchased Promega (in-house HiBiT-GPCR construct library, NanoBRET)
Method: as §1, §2

T1 sequence (P37288 whole entry): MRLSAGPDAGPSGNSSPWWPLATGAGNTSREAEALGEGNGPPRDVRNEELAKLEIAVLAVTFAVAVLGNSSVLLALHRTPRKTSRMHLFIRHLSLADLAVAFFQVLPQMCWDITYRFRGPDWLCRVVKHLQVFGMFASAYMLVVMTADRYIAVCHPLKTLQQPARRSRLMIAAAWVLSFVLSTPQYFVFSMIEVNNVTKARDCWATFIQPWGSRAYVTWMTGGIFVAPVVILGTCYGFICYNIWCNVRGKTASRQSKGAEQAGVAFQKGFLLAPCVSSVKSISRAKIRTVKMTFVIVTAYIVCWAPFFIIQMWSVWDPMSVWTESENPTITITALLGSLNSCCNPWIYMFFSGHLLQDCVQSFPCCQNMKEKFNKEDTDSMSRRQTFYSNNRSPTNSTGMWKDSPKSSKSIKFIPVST
T2 sequence (Q9GZQ6 whole entry): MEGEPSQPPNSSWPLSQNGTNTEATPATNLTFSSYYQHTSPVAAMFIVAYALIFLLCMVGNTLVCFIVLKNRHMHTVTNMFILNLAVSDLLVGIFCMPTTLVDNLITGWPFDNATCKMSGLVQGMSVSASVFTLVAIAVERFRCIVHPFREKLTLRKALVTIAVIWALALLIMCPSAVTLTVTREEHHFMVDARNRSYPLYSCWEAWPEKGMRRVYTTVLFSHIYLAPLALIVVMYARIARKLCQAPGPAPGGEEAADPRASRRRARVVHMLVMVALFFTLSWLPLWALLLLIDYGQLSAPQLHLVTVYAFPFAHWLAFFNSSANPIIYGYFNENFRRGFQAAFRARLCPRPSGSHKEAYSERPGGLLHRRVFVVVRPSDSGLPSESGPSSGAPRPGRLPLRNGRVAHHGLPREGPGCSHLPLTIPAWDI

| SMILES | NanoBRET Fold Response ([1]; AVPR1A, tracer 0.1μM) | NanoBRET Fold Response ([1]; AVPR1A, tracer 1μM) | NanoBRET Fold Response ([2]; NPFFR1, tracer 0.1μM) | NanoBRET Fold Response ([2]; NPFFR1, tracer 1μM) | other results |
| --- | --- | --- | --- | --- | --- |
| CCOC(=O)c1cc(C#N)c(N2CCC(C(=O)NS(=O)(=O)Cc3ccccc3/C=C/C(=O)NCCNC(=O)CCc3ccc4n3[B-](F)(F)[N+]3=C(c5ccc[nH]5)C=CC3=C4)CC2)nc1C [AZD1283-1-NB590] |  |  |  |  | NanoBRET Fold Response ([1]; AVPR1A, 0.1μM): 1.17; NanoBRET Fold Response ([1]; AVPR1A, 1μM): 1.06; NanoBRET Fold Response ([2]; NPFFR1, 0.1μM): 1.02; NanoBRET Fold Response ([2]; NPFFR1, 1μM): 0.99 |
| N#CN=C(NCCCOc1cccc(CN2CCCCC2)c1)NCCNC(=O)CCOCCOCCOCCOCCNC(=O)CCc1ccc2n1[B-](F)(F)[N+]1=C(c3ccc[nH]3)C=CC1=C2 [Aminopotentidine-2-NB590] | 0.93 | 0.97 | 0.96 | 1.02 |  |
| CN(C)CCC=C1c2ccccc2CCc2ccc(C(=O)NCCNC(=O)CCOCCOCCOCCOCCNC(=O)CCc3ccc4n3[B-](F)(F)[N+]3=C(c5ccc[nH]5)C=CC3=C4)cc21 [Amitriptyline-a-2-NB590] |  |  |  |  | NanoBRET Fold Response ([1]; tracer at 0.1μM): 0.93; NanoBRET Fold Response ([1]; tracer at 1μM): 1.11 |
| CN(C)CCC=C1c2ccccc2CCc2ccc(C(=O)NCCNC(=O)CCOCCOCCOCCOCCNC(=O)CCc3ccc4n3[B-](F)(F)[N+]3=C(c5ccc[nH]5)C=CC3=C4)cc21 [Amitriptyline-b-2-NB590] |  |  |  |  | NanoBRET Fold Response ([1]; tracer at 0.1μM, listed as amitriptyline-b-2-NB590): 1.10; NanoBRET Fold Response ([1]; tracer at 1μM, listed as amitriptyline-b-2-NB590): 0.77; NanoBRET Fold Response ([2]; tracer at 0.1μM): 0.98 |
| CN(CCC=C1c2ccccc2CCc2ccccc21)C(=O)CCOCCOCCOCCOCCNC(=O)CCc1ccc2n1[B-](F)(F)[N+]1=C(c3ccc[nH]3)C=CC1=C2 [Amitriptyline-e-2-NB590] |  |  |  |  | NanoBRET Fold Response ([1]; tracer at 1μM): 0.98 |
| COc1ccc2c(n1)c(CCNC(C)=O)cn2CCNC(=O)CCc1ccc2n1[B-](F)(F)[N+]1=C(c3ccc[nH]3)C=CC1=C2 [Azamelatonin-1-NB590] |  |  |  |  | NanoBRET Fold Response ([1]; 0.1μM tracer): 2.27; NanoBRET Fold Response ([1]; 1μM tracer): 0.90; NanoBRET Fold Response ([2]; 0.1μM tracer): 0.99; NanoBRET Fold Response ([2]; 1μM tracer): 0.91 |
| COc1ccc2[nH]c(-c3ccc(CNC(=O)CCOCCOCCOCCOCCNC(=O)CCc4ccc5n4[B-](F)(F)[N+]4=C(c6ccc[nH]6)C=CC4=C5)cc3)c(CCNC(C)=O)c2n1 [AzomelatoninICO9-2-NB590] |  |  |  |  | NanoBRET Fold Response ([1]; 0.1μM tracer): 0.80; NanoBRET Fold Response ([1]; 1μM tracer): 0.75; NanoBRET Fold Response ([2]; 1μM tracer): 1.01 |
| O=C(CCOCCOCCOCCOCCNC(=O)CCc1ccc2n1[B-](F)(F)[N+]1=C(c3ccc[nH]3)C=CC1=C2)NCCCN1CCN(C2=Nc3cc(Cl)ccc3Nc3ccccc32)CC1 [Clozapine-a-2-NB590] |  |  |  |  | NanoBRET Fold Response ([1]; AVPR1A, 0.1μM tracer): 0.89; NanoBRET Fold Response ([1]; AVPR1A, 1μM tracer): 0.99; NanoBRET Fold Response ([2]; NPFFR1, 1μM tracer): 0.98 |
| CN1CCN(C2=Nc3cc(Cl)ccc3Nc3ccc(CNC(=O)CCOCCOCCOCCOCCNC(=O)CCc4ccc5n4[B-](F)(F)[N+]4=C(c6ccc[nH]6)C=CC4=C5)cc32)CC1 [Clozapine-b-2-NB590] |  |  |  |  | NanoBRET Fold Response ([1]; AVPR1A, 0.1μM tracer): 1.04; NanoBRET Fold Response ([1]; AVPR1A, 1μM tracer): 0.98; NanoBRET Fold Response ([2]; NPFFR1, 0.1μM tracer): 1.00; NanoBRET Fold Response ([2]; NPFFR1, 1μM tracer): 1.02 |
| CN1CCN(C2=Nc3cc(Cl)ccc3N(CC(=O)NCCOCCOCCOCCOCCNC(=O)CCc3ccc4n3[B-](F)(F)[N+]3=C(c5ccc[nH]5)C=CC3=C4)c3ccccc32)CC1 [Clozapine-c-2-NB590] |  |  |  |  | NanoBRET Fold Response ([1]; AVPR1A, 0.1μM tracer): 0.99; NanoBRET Fold Response ([1]; AVPR1A, 1μM tracer): 0.96; NanoBRET Fold Response ([2]; NPFFR1, 0.1μM tracer): 1.02; NanoBRET Fold Response ([2]; NPFFR1, 1μM tracer): 1.00 |
| O=C(CCOCCOCCOCCOCCNC(=O)CCc1ccc2n1[B-](F)(F)[N+]1=C(c3ccc[nH]3)C=CC1=C2)NCCCN1CCN(C2=Nc3ccccc3Oc3ccc(Cl)cc32)CC1 [Loxapine-a-2-NB590] | 1.16 | 0.90 | 0.98 | 1.00 |  |
| COc1ccccc1N1CCN(CCCCN2C(=O)c3ccc(CNC(=O)CCOCCOCCOCCOCCNC(=O)CCc4ccc5n4[B-](F)(F)[N+]4=C(c6ccc[nH]6)C=CC4=C5)cc3C2=O)CC1 [NAN-190-2-NB590] | 0.97 | 0.96 | 0.95 | 1.02 |  |
| COc1ccccc1N1CCN(CCCCN2C(=O)c3ccc(CNC(=O)CCOCCNC(=O)c4ccc(CNC(=O)CCc5ccc6n5[B-](F)(F)[N+]5=C(c7ccc[nH]7)C=CC5=C6)cc4)cc3C2=O)CC1 [NAN-190-3-NB590] | 0.90 | 0.75 | 1.06 | 0.96 |  |
| O=C(CCc1ccc2n1[B-](F)(F)[N+]1=C(c3ccc[nH]3)C=CC1=C2)NCc1ccc(C(=O)NCCOCCC(=O)N[C@@H]2CC[C@@]3(O)[C@H]4Cc5ccc(O)c6c5[C@@]3(CCN4CC3CC3)[C@H]2O6)cc1 [Naltrexone-3-NB590] | 1.34 | 0.76 | 0.94 | 1.15 |  |
| Cc1cc2c(s1)Nc1ccccc1N=C2N1CCN(CCCNC(=O)CCOCCOCCOCCOCCNC(=O)CCc2ccc3n2[B-](F)(F)[N+]2=C(c4ccc[nH]4)C=CC2=C3)CC1 [Olanzapine-a-2-NB590] | 1.11 | 1.16 | 0.96 |  |  |
| O=C(CCc1ccc2n1[B-](F)(F)[N+]1=C(c3ccc[nH]3)C=CC1=C2)NCc1ccc(C(=O)NCCOCCOCCNCC(O)COc2cccc3ccccc23)cc1 (centres unmarked) [Propranolol-3-NB590] |  |  |  |  | NanoBRET Fold Response ([1]; AVPR1A, 0.1μM): 1.06; NanoBRET Fold Response ([1]; AVPR1A, 1μM): 0.97; NanoBRET Fold Response ([2]; NPFFR1, 0.1μM): 1.01; NanoBRET Fold Response ([2]; NPFFR1, 1μM): 0.99 |
| O=C(CCc1ccc2n1[B-](F)(F)[N+]1=C(c3ccc[nH]3)C=CC1=C2)NCCOCCOCCNC(=O)OCCOCCN1CCN(C2=Nc3ccccc3Sc3ccccc32)CC1 [Quetiapine-a-2-NB590] | 1.02 | 1.00 | 0.99 | 1.00 |  |
| Cc1nc2n(c(=O)c1CCN1CCC(c3noc4cc(F)ccc34)CC1)CCCC2OC(=O)NCCOCCOCCOCCOCCNC(=O)CCc1ccc2n1[B-](F)(F)[N+]1=C(c3ccc[nH]3)C=CC1=C2 (centres unmarked) [Risperidone-2-NB590] | 0.90 | 0.87 | 0.97 | 0.95 |  |
| CC(C)N(CC[C@H](c1ccccc1)c1cc(CCNC(=O)CCOCCOCCOCCOCCNC(=O)CCc2ccc3n2[B-](F)(F)[N+]2=C(c4ccc[nH]4)C=CC2=C3)ccc1O)C(C)C [Tolterodine-2-NB590] | 0.91 | 1.03 | 1.19 |  |  |
| CC(C)N(CC[C@H](c1ccccc1)c1cc(CCNC(=O)c2ccc(CNC(=O)CCc3ccc4n3[B-](F)(F)[N+]3=C(c5ccc[nH]5)C=CC3=C4)cc2)ccc1O)C(C)C [Tolterodine-BZ-NB590] | 1.15 | 1.07 | 0.96 | 1.02 |  |
| CCCn1c(=O)c2[nH]c(-c3ccc(OCC(=O)NCCNC(=O)CCOCCNC(=O)c4ccc(CNC(=O)CCc5ccc6n5[B-](F)(F)[N+]5=C(c7ccc[nH]7)C=CC5=C6)cc4)cc3)nc2n(CCC)c1=O [XAC-3-NB590] | 1.25 | 1.36 | 0.99 | 1.01 |  |
